This passage reports EC50 results from US20080182859A1 (Curis, Inc., priority 2006, published 2008).

The test system of test [1] is sonic hedgehog pathway. In words: Hedgehog pathway Gli-luciferase reporter assay, TM3 cells. It counts as cell-based. To be noted: TM3 mouse Leydig cells. From the text:
(§1) Mouse (TM3: mouse Leydig cells; S12: mouse embryonic mesenchymal cells) and human (Daoy: human medulloblastoma cell; HepM: human embryonic palatal mesenchymal cell) cell lines are used to screen small molecules for their ability to modulate the activity of the sonic hedgehog pathway (Table 1, Table 2, and Table 3). Stable hedgehog pathway reporter cell lines are established by specific antibiotic selection following transfection of a reporter plasmid containing a luciferase gene located directly downstream from the gli promoter. Consequently, any observable changes in cellular luciferase activity may be attributed to changes in sonic hedgehog pathway activity in mouse and human cells, respectively, since gli is the major by-product of this pathway. To calculate activity, we generate an eleven point dose curve for each compound using 1:3 dilutions in 96 well assay plates. Each plate tested also contains low and high control to establish maximal pathway activation so to establish/compare a percentage activation of each tested compound (AMAX) on respective plates. Also we calculate EC50 values, or a concentration where the pathway will be exactly 50% activated, for each tested compound to determine potency. In these cell lines, compounds that register >20% AMAX values are considered active.
(§2) Stable hedgehog pathway reporter cell lines are established following specific antibiotic selection following transfection of a reporter plasmid In short, typically cells are plated in MicroTiter-plates at 10,000-20,000 cells per well, in growth media (containing 10%-20% FBS). After 48-72 hrs (HGL and DGL respectively) the media in the assay plates is switched to low-serum containing media (0.5% FBS). At that time compounds are added (at 1-5 μM) to the assay plates, in the presence or absence of hedgehog protein (octyl-modified version; 1-5 ng/ml). After another 24 hrs of incubation, the media from the assay plates is discarded and replaced with luciferase assay-mix. Subsequently, plates are incubated at RT for ˜15-30 mins and then read in a luminometer. [note: addition of the Hedgehog protein, although not critical, will sensitize the assay allowing the identification of weak actives].
In general terms: In a reporter assay the amount or activity of a reporter protein is the signal.

The subject of test [2] is sonic hedgehog pathway. Description: Human hedgehog reporter assay Daoy-GliLuc (DGL). It counts as cell-based. To be noted: Daoy human medulloblastoma cells, Gli-luciferase reporter; read-out: Daoy Avg. EC50.
Text: as §1, §2

Counter-ions that a name gives are not always drawn.

With `CN[C@H]1CC[C@@H](N(Cc2cc(-c3ccc(C(F)(F)F)cc3)ccc2OC)C(=O)c2sc3ccccc3c2Cl)CC1` [Compound 306, 3-Chloro-benzo[b]thiophene-2-carboxylic acid (4-methoxy-4′-trifluoromethyl-biphenyl-3-ylmethyl)-(4-methylamino-cyclohexyl)-amide trifluoroacetate], the values for the EC50 with sonic hedgehog pathway [1] and with sonic hedgehog pathway [2] were 50 to 250 nM and less than 50 nM, respectively.
With `CN[C@H]1CC[C@@H](N(Cc2cc(-c3ccc(OC(F)(F)F)cc3)ccc2OC)C(=O)c2sc3ccccc3c2Cl)CC1` [Compound 307, 3-Chloro-benzo[b]thiophene-2-carboxylic acid (4-methoxy-4′-trifluoromethoxy-biphenyl-3-ylmethyl)-(4-methylamino-cyclohexyl)-amide hydrochloride], the EC50 with sonic hedgehog pathway [1] and with sonic hedgehog pathway [2] was less than 50 nM in each case.
As for `CN[C@H]1CC[C@@H](N(Cc2cc(-c3ccc(Cl)cc3)ccc2OC)C(=O)c2sc3ccccc3c2Cl)CC1` [Compound 308, 3-Chloro-benzo[b]thiophene-2-carboxylic acid (4′-chloro-4-methoxy-biphenyl-3-ylmethyl)-(4-methylamino-cyclohexyl)-amide hydrochloride], the EC50 with sonic hedgehog pathway [1] and in the test with sonic hedgehog pathway [2] was less than 50 nM throughout.
Consider `CCOc1ccc(-c2ccc(C(F)(F)F)cc2)cc1CN(C(=O)c1sc2ccccc2c1Cl)[C@H]1CC[C@@H](NC)CC1` [Compound 309, 3-Chloro-benzo[b]thiophene-2-carboxylic acid (4-ethoxy-4′-trifluoromethyl-biphenyl-3-ylmethyl)-(4-methylamino-cyclohexyl)-amide hydrochloride], for which the 50% effective concentration (EC50) in the test on sonic hedgehog pathway [1] was 50 to 250 nM; in the test with sonic hedgehog pathway [2], less than 50 nM.
As for `CCOc1ccc(-c2ccc(OC)cc2)cc1CN(C(=O)c1sc2ccccc2c1Cl)[C@H]1CC[C@@H](NC)CC1` [Compound 312, 3-Chloro-benzo[b]thiophene-2-carboxylic acid (4-ethoxy-4′-methoxy-biphenyl-3-ylmethyl)-(4-methylamino-cyclohexyl)-amide hydrochloride], in the test on sonic hedgehog pathway [2], the EC50 was 50 to 250 nM.
As to `CCOc1ccc(-c2ccccc2)cc1CN(C(=O)c1sc2ccccc2c1Cl)[C@H]1CC[C@@H](NC)CC1` [Compound 313, 3-Chloro-benzo[b]thiophene-2-carboxylic acid (4-ethoxy-biphenyl-3-ylmethyl)-(4-methylamino-cyclohexyl)-amide hydrochloride], the results for the 50% effective concentration (EC50) with sonic hedgehog pathway [1] and in the test with sonic hedgehog pathway [2] were 50 to 250 nM and less than 50 nM, respectively.
With `CN[C@H]1CC[C@@H](N(Cc2cc(-c3ccc(F)cc3)ccc2OC)C(=O)c2sc3ccccc3c2Cl)CC1` [Compound 314, 3-Chloro-benzo[b]thiophene-2-carboxylic acid (4′-fluoro-4-methoxy-biphenyl-3-ylmethyl)-(4-methylamino-cyclohexyl)-amide hydrochloride], the EC50 with sonic hedgehog pathway [1] and with sonic hedgehog pathway [2] was less than 50 nM throughout.
`CN[C@H]1CC[C@@H](N(Cc2cc(-c3cnc(N(C)C)nc3)ccc2OC)C(=O)c2sc3ccccc3c2Cl)CC1` [Compound 321, 3-Chloro-benzo[b]thiophene-2-carboxylic acid [5-(2-dimethylamino-pyrimidin-5-yl)-2-methoxy-benzyl]-(4-methylamino-cyclohexyl)-amide dihydrochloride]: the EC50 in the test with sonic hedgehog pathway [1] lay in the range of 1000 to 2500 nM; in the test with sonic hedgehog pathway [2], 50 to 250 nM.
On the same counts, the results for `CNc1ncc(-c2ccc(OC)c(CN(C(=O)c3sc4ccccc4c3Cl)[C@H]3CC[C@@H](NC)CC3)c2)cn1` [Compound 322, 3-Chloro-benzo[b]thiophene-2-carboxylic acid [2-methoxy-5-(2-methylamino-pyrimidin-5-yl)-benzyl]-(4-methylamino-cyclohexyl)-amide dihydrochloride] are 250 to 1000 nM and 50 to 250 nM.
Turning to `CN[C@H]1CC[C@@H](N(Cc2cc(-c3cnc(N)nc3)ccc2OC)C(=O)c2sc3ccccc3c2Cl)CC1` [Compound 323, 3-Chloro-benzo[b]thiophene-2-carboxylic acid [5-(2-amino-pyrimidin-5-yl)-2-methoxy-benzyl]-(4-methylamino-cyclohexyl)-amide dihydrochloride], the EC50 was 50 to 250 nM with sonic hedgehog pathway [1] and less than 50 nM with sonic hedgehog pathway [2].
Consider `CN[C@H]1CC[C@@H](N(Cc2cc(-c3cccc(C(C)=O)c3)ccc2OC)C(=O)c2sc3cccc(F)c3c2Cl)CC1` [Compound 363, 3-Chloro-4-fluoro-benzo[b]thiophene-2-carboxylic acid (3′-acetyl-4-methoxy-biphenyl-3-ylmethyl)-(4-methylamino-cyclohexyl)-amide hydrochloride], for which the EC50 in the test on sonic hedgehog pathway [1] and in the test with sonic hedgehog pathway [2] was less than 50 nM throughout.
Take `CN[C@H]1CC[C@@H](N(Cc2cc(-c3cccc(C#N)c3)ccc2OC)C(=O)c2sc3cccc(F)c3c2Cl)CC1` [Compound 365, 3-Chloro-4-fluoro-benzo[b]thiophene-2-carboxylic acid (3′-cyano-4-methoxy-biphenyl-3-ylmethyl)-(4-methylamino-cyclohexyl)-amide hydrochloride]: the EC50 in the test with sonic hedgehog pathway [1] and in the test with sonic hedgehog pathway [2] was less than 50 nM throughout.
The compound `CCOc1ccc(-c2cnc(N(C)C)nc2)cc1CN(C(=O)c1sc2ccccc2c1Cl)[C@H]1CC[C@H](NC)CC1` [Compound 401, 3-Chloro-benzo[b]thiophene-2-carboxylic acid [5-(2-dimethylamino-pyrimidin-5-yl)-2-ethoxy-benzyl]-(4-methylamino-cyclohexyl)-amide dihydrochloride] displayed an EC50 with sonic hedgehog pathway [1] of 1000 to 2500 nM.
With `CN[C@H]1CC[C@H](N(Cc2cc(-c3ccnc(C(C)=O)c3)ccc2OC)C(=O)c2sc3c(F)ccc(F)c3c2Cl)CC1` [Compound 407, 3-Chloro-4,7-difluoro-benzo[b]thiophene-2-carboxylic acid [5-(2-acetyl-pyridin-4-yl)-2-methoxy-benzyl]-(4-methylamino-cyclohexyl)-amide dihydrochloride], in the test on sonic hedgehog pathway [1], the EC50 is less than 50 nM.
In the test with sonic hedgehog pathway [1], `CN[C@H]1CC[C@H](N(Cc2cc(-c3ccc(OC)cc3)ccc2F)C(=O)c2sc3ccccc3c2Cl)CC1` [Compound 421, 3-Chloro-benzo[b]thiophene-2-carboxylic acid (4-fluoro-4′-methoxy-biphenyl-3-ylmethyl)-(4-methylamino-cyclohexyl)-amide trifluoroacetate] showed an EC50 of 250 to 1000 nM.
Still for that read-out and setting: with `CN[C@H]1CC[C@H](N(Cc2cc(-c3ccc(C(F)(F)F)cc3)ccc2F)C(=O)c2sc3ccccc3c2Cl)CC1` [Compound 422, 3-Chloro-benzo[b]thiophene-2-carboxylic acid (4-fluoro-4′-trifluoromethyl-biphenyl-3-ylmethyl)-(4-methylamino-cyclohexyl)-amide trifluoroacetate] the figure was 250 to 1000 nM; with `CN[C@H]1CC[C@H](N(Cc2cc(-c3ccc(C)cc3)ccc2F)C(=O)c2sc3ccccc3c2Cl)CC1` [Compound 427, 3-Chloro-benzo[b]thiophene-2-carboxylic acid (4-fluoro-4′-methyl-biphenyl-3-ylmethyl)-(4-methylamino-cyclohexyl)-amide trifluoroacetate], 250 to 1000 nM.
Turning to `CN[C@H]1CC[C@H](N(Cc2cc(-c3ccc(Cl)cc3)ccc2F)C(=O)c2sc3ccccc3c2Cl)CC1` [Compound 428, 3-Chloro-benzo[b]thiophene-2-carboxylic acid (4′-chloro-4-fluoro-biphenyl-3-ylmethyl)-(4-methylamino-cyclohexyl)-amide trifluoroacetate], the EC50 in the test on sonic hedgehog pathway [1] was 250 to 1000 nM.
Take `CN[C@H]1CC[C@H](N(Cc2cc(-c3ccc(NC(C)=O)cc3)ccc2F)C(=O)c2sc3ccccc3c2Cl)CC1` [Compound 429, 3-Chloro-benzo[b]thiophene-2-carboxylic acid (4′-acetylamino-4-fluoro-biphenyl-3-ylmethyl)-(4-methylamino-cyclohexyl)-amide trifluoroacetate]: the EC50 with sonic hedgehog pathway [1] was in the range of 1000 to 2500 nM.
The same measure, in the same setting: with `CN[C@H]1CC[C@H](N(Cc2cc(-c3ccc(N(C)C(C)=O)cc3)ccc2F)C(=O)c2sc3ccccc3c2Cl)CC1` [Compound 430, 3-Chloro-benzo[b]thiophene-2-carboxylic acid [4′-(acetyl-methyl-amino)-4-fluoro-biphenyl-3-ylmethyl]-(4-methylamino-cyclohexyl)-amide trifluoroacetate] the figure was 1000 to 2500 nM.
Same read-out and setting: with `CN[C@H]1CC[C@H](N(Cc2cc(-c3ccc(NC=O)cc3)ccc2F)C(=O)c2sc3ccccc3c2Cl)CC1` [Compound 431, 3-Chloro-benzo[b]thiophene-2-carboxylic acid (4-fluoro-4′-formylamino-biphenyl-3-ylmethyl)-(4-methylamino-cyclohexyl)-amide trifluoroacetate] the figure was 50 to 250 nM.
As for `CNc1ccc(-c2ccc(F)c(CN(C(=O)c3sc4ccccc4c3Cl)[C@H]3CC[C@H](NC)CC3)c2)cc1` [Compound 432, 3-Chloro-benzo[b]thiophene-2-carboxylic acid (4-fluoro-4′-methylamino-biphenyl-3-ylmethyl)-(4-methylamino-cyclohexyl)-amide dihydrochloride], in the test on sonic hedgehog pathway [1], the EC50 fell in the range of 250 to 1000 nM.

In general, EC50 refers to the concentration at which the effect is half-maximal.
